According to US11759462B2, “Spirocyclic compounds as tryptophan hydroxylase inhibitors” (priority 2013, dated 2023):

Assays:
[1] = tested on: jejunal mucosal 5-HT in mice (C57 BL6); assay: Intestinal 5-HT depletion assay (Example B, single 150 mg/kg oral dose); type: in vivo, mouse; settings: one day after oral administration of a single 150 mg/kg dose, P-value class (ANOVA)
Procedure, shortened: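 C57 BL6 mice received one 150 mg/kg oral gavage dose; jejunal mucosa was homogenized in acidic trichloroacetic acid buffer and 5-HT measured by HPLC. Levels normalized to BCA protein, expressed as mean percent reduction versus vehicle ± SEM; ANOVA significance.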

[2] = tested on: jejunal mucosal 5-HT in mice (C57 BL6); assay: Reduction of mucosal 5-HT concentrations (Example C, repeated oral dosing); type: in vivo, mouse; settings: P-value class
Procedure: The efficacy of the TPH1 inhibitors of the invention was assessed for the ability to decrease intestinal serotonin concentration in mice. Mice (C57 BL6) were administered an oral dose of 10 or 50 mg/kg of the test article in the evening. […] Following an overnight fast, each animal was euthanized by exsanguination under isoflurane anesthesia. Jejunal intestinal mucosa was isolated and homogenized in […] of a buffer containing 0.3M trichloroacetic acid, 0.1M sodium acetate, 10 mM EDTA, 20 mM sodium bisulfate and 50 mM ascorbic acid. Following centrifugation the 5-HT levels in the supernatants were measured by HPLC. The remaining mucosal pellet was solubilized overnight at 37° C. in a 0.1% sodium dodecyl sulfate buffer in 0.1N NaOH followed by determination of protein concentrations using a BCA protein assay (Pierce, Rockford, Ill.). 5-HT levels were normalized to protein and data were expressed as mean percent reduction of mucosal 5-HT levels relative to vehicle control±SEM (percent 5-HT reduction). All animal studies were carried out with protocols approved by the Institutional Animal Care and Use Committee. P-values, indicating statistical significance of the data (ANOVA) are provided in the table: * refers to P<0.05,** refers to P<0.01, *** refers to P<0.005, and **** refers to P<0.0005.

[3] = after three oral doses (first 10 or 50 mg/kg, then two doses of 50 mg/kg) (title)

| Compound | Efficacy (statistical significance of reduction of mucosal 5-HT concentrations relative to vehicle) [1] | Efficacy (statistical significance of reduction of mucosal 5-HT concentrations relative to vehicle) [2, 3] | Efficacy (statistical significance of reduction of mucosal 5-HT concentrations relative to vehicle) ([2]; (title)) |
| --- | --- | --- | --- |
| CCOC(=O)[C@@H]1CC2(CCN(c3cc(O[C@H](c4ccc(Cl)cc4-n4ccc(C)n4)C(F)(F)F)nc(N)n3)CC2)CN1 [Example 63az, (S)-ethyl 8-(2-amino-6-((R)-1-(4-chloro-2-(3-methyl-1H-pyrazol-1-yl)phenyl)-2,2,2-trifluoroethoxy)pyrimidin-4-yl)-2,8-diazaspiro[4.5]decane-3-carboxylate] | *** (*** refers to P<0.005) | *** (*** refers to P<0.005) |  |
| CCOC(=O)[C@@H]1CC2(CCN(c3cc(O[C@H](c4ccc(-c5ccc6ncccc6c5)cc4)C(F)(F)F)nc(N)n3)CC2)CN1 [Example 63cl, (S)-ethyl 8-(2-amino-6-((R)-2,2,2-trifluoro-1-(4-(quinolin-6-yl)phenyl)ethoxy)pyrimidin-4-yl)-2,8-diazaspiro[4.5]decane-3-carboxylate] | *** (*** refers to P<0.005) |  | *** (*** refers to P<0.005) |
| CCOC(=O)[C@@H]1CC2(CCN(c3cc(O[C@H](c4ccc(Cl)cc4-c4cccc(F)c4)C(F)(F)F)nc(N)n3)CC2)CN1 [Example 63ev, (S)-ethyl 8-(2-amino-6-((R)-1-(5-chloro-3′-fluoro-[1,1′-biphenyl]-2-yl)-2,2,2-trifluoroethoxy)pyrimidin-4-yl)-2,8-diazaspiro[4.5]decane-3-carboxylate] |  | *** (*** refers to P<0.005) |  |
| CCOC(=O)[C@@H]1CC2(CCN(c3cc(O[C@H](c4ccc(Cl)cc4-c4cccnc4)C(F)(F)F)nc(N)n3)CC2)CN1 [Example 63fo, (S)-ethyl 8-(2-amino-6-((R)-1-(4-chloro-2-(pyridin-3-yl)phenyl)-2,2,2-trifluoroethoxy)pyrimidin-4-yl)-2,8-diazaspiro[4.5]decane-3-carboxylate] |  | * (* refers to P<0.05) |  |
| CCOC(=O)[C@@H]1CC2(CCN(c3cc(O[C@H](c4ccc(Cl)cc4-c4cccc(S(C)(=O)=O)c4)C(F)(F)F)nc(N)n3)CC2)CN1 [Example 63cj, (S)-ethyl 8-(2-amino-6-((R)-1-(5-chloro-3′-(methylsulfonyl)-[1,1′-biphenyl]-2-yl)-2,2,2-trifluoroethoxy)pyrimidin-4-yl)-2,8-diazaspiro[4.5]decane-3-carboxylate] | *** (*** refers to P<0.005) | ** (** refers to P<0.01) |  |
| CCOC(=O)[C@@H]1CC2(CCN(c3cc(O[C@H](c4ccc(Cl)cc4-c4cccc(C)c4)C(F)(F)F)nc(N)n3)CC2)CN1 [Example 63aq, (S)-ethyl 8-(2-amino-6-((R)-1-(5-chloro-3′-methyl-[1,1′-biphenyl]-2-yl)-2,2,2-trifluoroethoxy)pyrimidin-4-yl)-2,8-diazaspiro[4.5]decane-3-carboxylate] |  | *** (*** refers to P<0.005) |  |
| CCOC(=O)[C@@H]1CC2(CCN(c3cc(O[C@H](c4ccc(Cl)cc4-c4ccccc4)C(F)(F)F)nc(N)n3)CC2)CN1 [Example 63i, (S)-ethyl 8-(2-amino-6-((R)-1-(5-chloro-[1,1′-biphenyl]-2-yl)-2,2,2-trifluoroethoxy)pyrimidin-4-yl)-2,8-diazaspiro[4.5]decane-3-carboxylate] |  | *** (*** refers to P<0.005) |  |
| CCOC(=O)[C@@H]1CC2(CCN(c3cc(O[C@H](c4ccc(Cl)cc4-c4cccc(S(N)(=O)=O)c4)C(F)(F)F)nc(N)n3)CC2)CN1 [Example 63ch, (S)-ethyl 8-(2-amino-6-((R)-1-(5-chloro-3′-sulfamoyl-[1,1′-biphenyl]-2-yl)-2,2,2-trifluoroethoxy)pyrimidin-4-yl)-2,8-diazaspiro[4.5]decane-3-carboxylate] | *** (*** refers to P<0.005) | *** (*** refers to P<0.005) |  |
| CCOC(=O)[C@@H]1CC2(CCN(c3cc(O[C@H](c4ccc(-c5ccc(OC(C)C)cc5)cc4-n4ccc(C)n4)C(F)(F)F)nc(N)n3)CC2)CN1 [Example 63cn, (S)-ethyl 8-(2-amino-6-((R)-2,2,2-trifluoro-1-(4′-isopropoxy-3-(3-methyl-1H-pyrazol-1-yl)-[1,1′-biphenyl]-4-yl)ethoxy)pyrimidin-4-yl)-2,8-diazaspiro[4.5]decane-3-carboxylate] |  | **** (**** refers to P<0.0005) |  |
| CCOC(=O)[C@@H]1CC2(CCN(c3cc(O[C@H](c4ccc(Cl)cc4-c4cccc(C(C)(C)C)c4)C(F)(F)F)nc(N)n3)CC2)CN1 [Example 63el, (S)-ethyl 8-(2-amino-6-((R)-1-(3′-(tert-butyl)-5-chloro-[1,1 biphenyl]-2-yl)-2,2,2-trifluoroethoxy)pyrimidin-4-yl)-2,8-diazaspiro[4.5]decane-3-carboxylate] |  | *** (*** refers to P<0.005) |  |
| CCOC(=O)[C@@H]1CC2(CCN(c3cc(O[C@H](c4ccc(Cl)cc4-c4cc(F)cc(F)c4)C(F)(F)F)nc(N)n3)CC2)CN1 [Example 63ey, (S)-ethyl 8-(2-amino-6-((R)-1-(5-chloro-3′,5′-difluoro-[1,1′-biphenyl]-2-yl)-2,2,2-trifluoroethoxy)pyrimidin-4-yl)-2,8-diazaspiro[4.5]decane-3-carboxylate] |  | ** (** refers to P<0.01) |  |
| (S)-cyclopentyl 8-(2-amino-6-((R)-1-(4′-chloro-3-(3- methyl-1H-pyrazol-1-yl)-[1,1′-biphenyl]-4-yl)-2,2,2- trifluoroethoxy)pyrimidin-4-yl)-2,8- diazaspiro[4.5]decane-3-carboxylate [Example 69b] |  |  | *** (*** refers to P<0.005) |
| CCOC(=O)[C@@H]1CC2(CCN(c3cc(O[C@H](c4cc(Cl)ccc4-c4cccc(S(C)(=O)=O)c4)C(F)(F)F)nc(N)n3)CC2)CN1 [Example 63ae, (S)-ethyl 8-(2-amino-6-((R)-1-(4-chloro-3′-(methylsulfonyl)-[1,1′-biphenyl]-2-yl)-2,2,2-trifluoroethoxy)pyrimidin-4-yl)-2,8-diazaspiro[4.5]decane-3-carboxylate] |  | *** (*** refers to P<0.005) |  |
| CCCOC(=O)[C@@H]1CC2(CCN(c3cc(O[C@H](c4ccc(Cl)cc4-c4ccccc4)C(F)(F)F)nc(N)n3)CC2)CN1 [Example 69c, (S)-propyl 8-(2-amino-6-((R)-1-(5-chloro-[1,1′-biphenyl]-2-yl)-2,2,2-trifluoroethoxy)pyrimidin-4-yl)-2,8-diazaspiro[4.5]decane-3-carboxylate] |  | *** (*** refers to P<0.005) |  |
| CCOC(=O)[C@@H]1CC2(CCN(c3cc(O[C@H](c4ccc(-c5ccc(OC)cc5)cc4-n4ccc(C)n4)C(F)(F)F)nc(N)n3)CC2)CN1 [Example 63ha, (S)-ethyl 8-(2-amino-6-((R)-2,2,2-trifluoro-1-(4′-methoxy-3-(3-methyl-1H-pyrazol-1-yl)-[1,1′-biphenyl]-4-yl)ethoxy)pyrimidin-4-yl)-2,8-diazaspiro[4.5]decane-3-carboxylate] |  | ** (** refers to P<0.01) |  |
| CC(C)OC(=O)[C@@H]1CC2(CCN(c3cc(O[C@H](c4ccc(Cl)cc4-c4ccccc4)C(F)(F)F)nc(N)n3)CC2)CN1 [Example 69a, (S)-isopropyl 8-(2-amino-6-((R)-1-(5-chloro-[1,1′-biphenyl]-2-yl)-2,2,2-trifluoroethoxy)pyrimidin-4-yl)-2,8-diazaspiro[4.5]decane-3-carboxylate] |  | *** (*** refers to P<0.005) |  |
| CCOC(=O)[C@@H]1CC2(CCN(c3cc(O[C@H](c4ccc(Cl)cc4-c4cccc(C(F)(F)F)c4)C(F)(F)F)nc(N)n3)CC2)CN1 [Example 63ar, (S)-ethyl 8-(2-amino-6-((R)-1-(5-chloro-3′-(trifluoromethyl)-[1,1′-biphenyl]-2-yl)-2,2,2-trifluoroethoxy)pyrimidin-4-yl)-2,8-diazaspiro[4.5]decane-3-carboxylate] |  | **** (**** refers to P<0.0005) |  |
| CCOC(=O)[C@@H]1CC2(CCN(c3cc(O[C@H](c4ccc(-c5ccc(Cl)c(Cl)c5)cc4-n4ccc(C)n4)C(F)(F)F)nc(N)n3)CC2)CN1 [Example 63aw, (S)-ethyl 8-(2-amino-6-((R)-1-(3′,4′-dichloro-3-(3-methyl-1H-pyrazol-1-yl)-[1,1′-biphenyl]-4-yl)-2,2,2-trifluoroethoxy)pyrimidin-4-yl)-2,8-diazaspiro[4.5]decane-3-carboxylate] |  | **** (**** refers to P<0.0005) |  |
